Source: patent US20230348437A1, “COMPOUNDS, COMPOSITIONS AND METHODS” (Denali Therapeutics Inc., priority 2020, published 2023)

system: NLRP3 (IL-1β secretion from THP-1 cells); test: IL-1β secretion assay in 384-well plates, PMA differentiated THP-1 cells, LPS and nigericin stimulation; format: cell-based; details: Homo sapiens; THP-1 cells, PMA 5 ng/mL, LPS 25 ng/mL, nigericin, IL-1β ELISA, 384-well; read-out: Activity
Protocol: Compounds as provided herein were tested in the following assay. […] Freezing medium was made up of 90% FBS and 10% DMSO. THP-1 cells were removed from the liquid nitrogen and placed into a 37° C. water bath to thaw, until signs of ice dissipated. The cells were then added to 9 mL of warm cell culture medium and centrifuged for 5 minutes at 1000 rpm. The supernatant was discarded, and the cells were resuspended in new cell culture medium. The THP-1 cells were then split and cultured in the cell culture medium, being passaged every 2-3 days (5×10^5 cells/mL passaged every two days, 3×10^5 cells/mL passaged every three days). Cell density was maintained between 5×10^5-1.5×10^6 viable cells/mL.
PMA was dissolved in DMSO to make a stock solution at 5 mg/mL and stored in 10 µl aliquots at -20° C. for single use. PMA is added to normal growth medium. LPS was diluted with 1 mL of water solution to provide a 1 mg/mL stock solution and stored in 15 µl aliquots at -20° C. for single use. Nigericin is diluted in ice cold 100% ethanol to 5 mg/mL (6.7 mM) and stored in 75 µL aliquots at -20° C. for single use. […] The two control conditions used to qualify and normalize test compound dose-response curves were as follows: High Control = 25 ng/mL LPS, 5 µM Nigericin, 0.5% DMSO, Low Control = 25 ng/mL, LPS, 0.5% DMSO.
THP-1 cells were diluted to provide a suspension at a concentration of 1.0×10^6 cells/mL with the total volume of suspension required to enable the desired number of assay plates. The growth media was supplemented with PMA (5 ng/mL final concentration) and the cells were incubated at 37° C. under a humidified atmosphere of 5% CO2 for 40 h.
All media was carefully aspirated from each culture flask. The cells were washed carefully with 1x DPBS. The cells were then briefly digested with trypsin LE for 5 minutes at 23° C. and immediately resuspended in cell growth media. After resuspension, the cells were centrifuged at 1000 rpm for 3 minutes and the supernatant was discarded. The cells were resuspended in DPBS and once again centrifuged at 1000 rpm for 5 minutes. The supernatant was discarded and the cell pellet was resuspended in serum-free media supplemented with LPS (25 ng/mL final concentration) to enable the distribution of 30 K THP-1 cells within 45 µL of media into each well of 384-well PDL-coated plates. The 384-well plates were then incubated at 37° C. under a humidified atmosphere of 5% CO2 for 2 h. Following this period, test compounds were dispensed by Tecan across the desired concentration range with all wells normalized to a final 0.5 % DMSO concentration. The plates were then incubated at 37° C. under a humidified atmosphere of 5% CO2 for 1 h. Following this period, 5 µL of the […] nigericin stock solution was added to each of the appropriate wells and plates were centrifuged at 1000 rpm for 30 seconds. The plates were the immediately reintroduced to the incubator at 37° C. under a humidified atmosphere of 5% CO2 for 2 h. After this time, 35 µL/well of supernatant was collected and transferred into v-bottom plate and centrifuged at 1000 rpm for 1 minute. These supernatant aliquots were analyzed using an IL-Iβ detection kit as described below. If needed, the test samples could be snap frozen and stored at -80° C. until analyzed.
To prepare each ELISA plate, capture antibody (mAb Mt175) was diluted with PBS to a final concentration of 2 µg/mL and then 20 µL of this solution was added to each well of the ELISA plate. Each plate was allowed to incubate overnight at 4° C. The next day, the capture antibody solution was removed and discarded. […] Each ELISA plate was then allowed to incubate for 1 hour at 23° C. After this time, the blocking buffer was removed and discarded. Each ELISA plate was washed 4 times with PBST. During this time, the v-bottomed plates containing the supernatant aliquots from the assay run were centrifuged at 300 g for 5 minutes before transferring 15 µL/well of the supernatant sample to each ELISA plate. […]

Question: With `CC(C)c1nn(CC(=O)Nc2ncncc2F)c(=O)c(C(F)F)c1-c1cccc(F)c1` [Example 37, 2-[5-(difluoromethyl)-4-(3-fluorophenyl)-6-oxo-3-propan-2-ylpyridazin-1-yl]-N-(5-fluoropyrimidin-4-yl)acetamide] as the compound, how does the IC50 read?
Answer: 30.1 µM

Question: `Cc1c(-c2cc(F)cc(F)c2)c(C(C)C)nn(CC(=O)Nc2ncncc2F)c1=O` [Example 38, 2-[4-(3,5-difluorophenyl)-5-methyl-6-oxo-3-propan-2-ylpyridazin-1-yl]-N-(5-fluoropyrimidin-4-yl)acetamide] was tested. Which IC50 did it give?
Answer: 0.812 µM

Question: How did the IC50 turn out when `CC(C)c1nn(CC(=O)N[C@@H]2CCCN(C3CC3)C2)c(=O)cc1-c1cccc(F)c1` [Example 39, N-[(3R)-1-cyclopropylpiperidin-3-yl]-2-[4-(3-fluorophenyl)-6-oxo-3-propan-2-ylpyridazin-1-yl]acetamide] was run?
Answer: 0.49 µM

Question: How did the IC50 turn out when `CCN1CCC[C@@H](NC(=O)Cn2nc(C3CCC3)c(-c3cccc(F)c3)cc2=O)C1` [Example 40, 2-[3-cyclobutyl-4-(3-fluorophenyl)-6-oxopyridazin-1-yl]-N-[(3R)-1-ethylpiperidin-3-yl]acetamide] was run?
Answer: 1.44 µM

Question: For `CC(C)c1nn(CC(=O)Nc2ncccc2F)c(=O)cc1-c1cccc(F)c1` [Example 41, 2-[4-(3-fluorophenyl)-6-oxo-3-propan-2-ylpyridazin-1-yl]-N-(3-fluoropyridin-2-yl)acetamide], which IC50 is on record?
Answer: 7.21 µM

Question: `CC(C)c1nn(CC(=O)Nc2ncncc2F)c(=O)cc1-c1cc(F)cc(F)c1` [Example 42, 2-[4-(3,5-difluorophenyl)-6-oxo-3-propan-2-ylpyridazin-1-yl]-N-(5-fluoropyrimidin-4-yl)acetamide] was tested. Which IC50 did it give?
Answer: 0.32 µM

Question: `CC(C)c1nn(CC(=O)Nc2ncc(F)cn2)c(=O)cc1-c1cc(F)cc(F)c1` [Example 44] was tested. Which IC50 did it give?
Answer: 0.236 µM

Question: Which IC50 does the source give for `CC(C)c1nn(CC(=O)Nc2ncc(F)cc2F)c(=O)cc1-c1cc(F)cc(F)c1` [Example 45] here?
Answer: 0.596 µM

Question: How did the IC50 turn out when `CC(C)c1nn(CC(=O)Nc2ncncc2F)c(=O)cc1-c1cc(F)cc(Cl)c1` [Example 46, 2-[4-(3-chloro-5-fluorophenyl)-6-oxo-3-propan-2-ylpyridazin-1-yl]-N-(5-fluoropyrimidin-4-yl)acetamide] was run?
Answer: 0.637 µM

Question: For `CC(C)c1nn(CC(=O)Nc2ncncc2F)c(=O)cc1-c1cc(F)cc(C2CC2(F)F)c1` (stereo not drawn) [Example 47, 2-[4-[3-(2,2-difluorocyclopropyl)-5-fluorophenyl]-6-oxo-3-propan-2-ylpyridazin-1-yl]-N-(5-fluoropyrimidin-4-yl)acetamide], which IC50 is on record?
Answer: 8.45 µM

Question: How did the IC50 turn out when `O=C(Cn1nc(C2CC2)c(-c2cc(F)cc(F)c2)cc1=O)Nc1ncncc1F` [Example 48, 2-[3-cyclopropyl-4-(3,5-difluorophenyl)-6-oxopyridazin-1-yl]-N-(5-fluoropyrimidin-4-yl)acetamide] was run?
Answer: 1.64 µM

Question: With `O=C(Cn1nc(C2CC2(F)F)c(-c2cc(F)cc(F)c2)cc1=O)Nc1ncncc1F` (stereo not drawn) [Example 49, 2-[3-(2,2-difluorocyclopropyl)-4-(3,5-difluorophenyl)-6-oxopyridazin-1-yl]-N-(5-fluoropyrimidin-4-yl)acetamide] as the compound, how does the IC50 read?
Answer: 3.24 µM

Question: For `O=C(Cn1nc(CC(F)(F)F)c(-c2cc(F)cc(F)c2)cc1=O)Nc1ncncc1F` [Example 50, 2-[4-(3,5-difluorophenyl)-6-oxo-3-(2,2,2-trifluoroethyl)pyridazin-1-yl]-N-(5-fluoropyrimidin-4-yl)acetamide], which IC50 is on record?
Answer: 1.64 µM

Question: Which IC50 does the source give for `CC(C)c1nn(C2(C(=O)Nc3ncccn3)CC2)c(=O)cc1-c1cc(F)cc(F)c1` [Example 51, 1-[4-(3,5-difluorophenyl)-3-isopropyl-6-oxo-pyridazin-1-yl]-N-pyrimidin-2-yl-cyclopropanecarboxamide] here?
Answer: 1.14 µM

Question: With `CCc1nn(CC(=O)Nc2ncncc2F)c(=O)c(C)c1-c1cccc(F)c1` [Example 52, 2-[3-ethyl-4-(3-fluorophenyl)-5-methyl-6-oxopyridazin-1-yl]-N-(5-fluoropyrimidin-4-yl)acetamide] as the compound, how does the IC50 read?
Answer: 4.36 µM
